This note sets out measurements from PubChem BioAssay (NCI).

Test systems include MALME-3M melanoma; NCI-H226 lung; 786-0 renal; OVCAR-5 ovarian; ACHN renal; NCI/ADR-RES ovarian; OVCAR-4 ovarian; RPMI-8226 leukemia; SW-620 colon; T-47D breast; HCC-2998 colon; SF-268 CNS; KM12 colon; NCI-H23 lung; MCF7 breast; HT29 colon; A498 renal; SK-MEL-28 melanoma.
What all share (assay): NCI tumour cell line growth inhibition, 48 h

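Following 48 hours of exposure in 96-well plates, responses at five concentrations were used to interpolate endpoints linearly. TGI is the concentration that stops growth completely.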

For the compound `Cc1ccc(NC(=O)C23CC4CC(CC(C4)C2)C3)c(C(=O)NNC(=O)c2ccc(Cl)cc2)c1`, the TGI in the test with MALME-3M melanoma was found to be 59.4 µM; with NCI-H226 lung it was 62.6 µM; in the test on 786-0 renal, 59 µM; in the test with OVCAR-5 ovarian, 61.3 µM; with ACHN renal, 37.8 µM; in the test with NCI/ADR-RES ovarian, 61.1 µM. Besides, the TGI in the test on OVCAR-4 ovarian is 65.8 µM; with RPMI-8226 leukemia, 41.5 µM; in the test with SW-620 colon, over 100 µM; in the test with T-47D breast, over 100 µM; in the test with HCC-2998 colon, 30.2 µM; in the test on SF-268 CNS it was over 100 µM. Also, the TGI with KM12 colon worked out at 90.9 µM; with NCI-H23 lung it was 38.8 µM; in the test on MCF7 breast it was 59.7 µM; in the test with HT29 colon, 72.9 µM.
Regarding `C/C(CC(O)(C(F)(F)Cl)C(F)(F)Cl)=N\Nc1ccccc1`, the TGI in the test with MALME-3M melanoma is over 100 µM; with NCI-H226 lung, 89.1 µM; in the test on 786-0 renal, over 100 µM; with OVCAR-5 ovarian, over 100 µM; with ACHN renal, 85.2 µM; with NCI/ADR-RES ovarian, over 100 µM. In addition, the TGI in the test with OVCAR-4 ovarian, in the test with RPMI-8226 leukemia, in the test on SW-620 colon, with A498 renal, in the test on T-47D breast and in the test on KM12 colon was over 100 µM throughout. Moreover, the TGI in the test with NCI-H23 lung is 50 µM; in the test with SK-MEL-28 melanoma, over 100 µM; with MCF7 breast it was over 100 µM; with HT29 colon, over 100 µM.
As for `Cc1ccc(C)n1-n1c(Cc2ccc(Cl)cc2)n[nH]c1=O`, the TGI in the test with MALME-3M melanoma, with NCI-H226 lung, in the test with 786-0 renal, in the test on OVCAR-5 ovarian, in the test with ACHN renal and in the test with NCI/ADR-RES ovarian was over 100 µM throughout. The TGI in the test on OVCAR-4 ovarian, in the test with RPMI-8226 leukemia, in the test on SW-620 colon, in the test on A498 renal, with T-47D breast and in the test on SF-268 CNS was over 100 µM in each case. For the same compound, the TGI in the test with KM12 colon, in the test on SK-MEL-28 melanoma, in the test on MCF7 breast and in the test on HT29 colon was over 100 µM in each case.
`Cc1cc(N(C)C)ccc1N=Nc1ccc2ncccc2c1`: the TGI in the test on MALME-3M melanoma, in the test with NCI-H226 lung, in the test on 786-0 renal, with OVCAR-5 ovarian, with ACHN renal and in the test with NCI/ADR-RES ovarian was over 100 µM each time. Also, the TGI in the test on RPMI-8226 leukemia, with SW-620 colon, with T-47D breast, with SF-268 CNS, in the test with KM12 colon and in the test on NCI-H23 lung was over 100 µM each time. The TGI with MCF7 breast and in the test with HT29 colon was over 100 µM throughout.
As for `CCN(CC)CCC1CCCCN1CC(=O)N1c2ccccc2NC(=O)CC1C` (stereo not given), the TGI in the test with MALME-3M melanoma, with NCI-H226 lung, in the test with 786-0 renal, with OVCAR-5 ovarian, with ACHN renal and in the test with OVCAR-4 ovarian was over 100 µM each time. In addition, the TGI with RPMI-8226 leukemia, in the test with A498 renal, in the test on T-47D breast, in the test on HCC-2998 colon, with SF-268 CNS and in the test on KM12 colon was over 100 µM throughout. Also, the TGI with NCI-H23 lung, with SK-MEL-28 melanoma, with MCF7 breast and in the test on HT29 colon was over 100 µM in each case.
In the case of `CC1(C)CC(=O)c2c(nc3c(ccc4ccccc43)c2-c2ccc(NC(=O)CCCCCCCCC(=O)Nc3ccc(-c4c5c(nc6c4ccc4ccccc46)CC(C)(C)CC5=O)cc3)cc2)C1`, the TGI with NCI-H226 lung, in the test on 786-0 renal, with OVCAR-5 ovarian, with ACHN renal, in the test with NCI/ADR-RES ovarian and in the test with RPMI-8226 leukemia was over 100 µM throughout. Further, the TGI in the test with SW-620 colon, in the test on T-47D breast, in the test with SF-268 CNS, in the test with KM12 colon, with SK-MEL-28 melanoma and in the test with MCF7 breast was over 100 µM in each case. In the test with HT29 colon, the TGI was over 100 µM.
Consider `CCc1nc2c(n1CC)C(=O)c1ccccc1C2=O`, for which the TGI in the test with MALME-3M melanoma was 34.3 µM; with NCI-H226 lung it was over 100 µM; in the test on 786-0 renal, over 100 µM; in the test on OVCAR-5 ovarian, over 100 µM; in the test with ACHN renal, over 100 µM; in the test on NCI/ADR-RES ovarian it was over 100 µM. Moreover, the TGI in the test with OVCAR-4 ovarian is over 100 µM; in the test with RPMI-8226 leukemia it was over 100 µM; with SW-620 colon, over 100 µM; in the test on T-47D breast, 57 µM; in the test with HCC-2998 colon, over 100 µM; with SF-268 CNS it was over 100 µM. In addition, the TGI with KM12 colon was over 100 µM; in the test with NCI-H23 lung it was over 100 µM; in the test with SK-MEL-28 melanoma, over 100 µM; with MCF7 breast, over 100 µM; with HT29 colon, 63.9 µM.
Regarding `COc1ccc2cc(NC(=O)Nn3cnnc3)ccc2c1`, the TGI in the test on MALME-3M melanoma, in the test with NCI-H226 lung, with 786-0 renal, in the test on OVCAR-5 ovarian, in the test on ACHN renal and with OVCAR-4 ovarian was over 100 µM throughout. Besides, the TGI with RPMI-8226 leukemia, in the test on SW-620 colon, in the test on A498 renal, in the test with T-47D breast, in the test on HCC-2998 colon and with SF-268 CNS was over 100 µM in each case. For the same compound, the TGI with KM12 colon, with NCI-H23 lung, in the test with SK-MEL-28 melanoma, in the test on MCF7 breast and in the test on HT29 colon was over 100 µM throughout.
